Results: US5344843A, “Cat-1 inhibitors, pharmaceutical compositions and methods of use” (Hoffman-La Roche Inc., priority 1992, dated 1994)
Counter-ions that a name gives are not always drawn. Like-named read-outs stand apart in the source and are kept apart here.

Biological target: T1, CAT-1 (carnitine acyltransferase 1) (Rattus norvegicus, UniProt Q63704)
T1 construct: This preparation is used as the isolated mitochondrial preparation; from tissue; host or cells: rat heart (atria removed), isolated mitochondria
T1 sequence (Q63704 1-772): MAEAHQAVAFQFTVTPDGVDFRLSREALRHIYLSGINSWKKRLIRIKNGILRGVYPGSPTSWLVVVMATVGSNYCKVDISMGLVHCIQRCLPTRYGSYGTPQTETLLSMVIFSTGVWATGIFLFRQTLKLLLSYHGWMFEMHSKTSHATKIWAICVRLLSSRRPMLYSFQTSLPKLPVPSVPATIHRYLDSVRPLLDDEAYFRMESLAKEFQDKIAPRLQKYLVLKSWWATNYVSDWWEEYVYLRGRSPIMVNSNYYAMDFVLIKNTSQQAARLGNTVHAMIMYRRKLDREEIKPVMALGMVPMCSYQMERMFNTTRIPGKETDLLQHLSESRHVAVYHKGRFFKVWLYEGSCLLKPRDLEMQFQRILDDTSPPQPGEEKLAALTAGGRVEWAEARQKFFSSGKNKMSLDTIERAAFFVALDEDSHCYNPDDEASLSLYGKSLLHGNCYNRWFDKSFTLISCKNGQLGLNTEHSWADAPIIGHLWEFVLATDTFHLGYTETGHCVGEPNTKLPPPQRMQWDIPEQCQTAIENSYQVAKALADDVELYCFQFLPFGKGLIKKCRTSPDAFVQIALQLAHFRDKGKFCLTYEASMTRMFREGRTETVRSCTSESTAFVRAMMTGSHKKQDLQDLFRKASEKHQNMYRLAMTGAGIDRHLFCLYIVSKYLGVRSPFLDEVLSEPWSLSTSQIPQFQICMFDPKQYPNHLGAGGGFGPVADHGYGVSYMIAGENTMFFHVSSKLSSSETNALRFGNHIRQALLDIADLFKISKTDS
Experiment: Primary Screen--Inhibition of CAT-1 in isolated mitochondria
Format: biochemical
Parameters: inhibition: dose or concentration left out as unconfirmed

[1] = rat heart mitochondria, reduction of palmitoyl carnitine formation by 50%, read-out: Primary Screen IC50

Method: Primary Screen--Inhibitors of CAT-1 in 1Mitochondria
(a). Preparation of Mitochondria
The heart is rapidly removed from an anesthetized rat (sodium pentabarbitol) and placed in ice-cold homogenization buffer (sucrose, 250 mM; Tris, 10 mM; EDTA, 1 mM; BSA, 0.01%; pH=7.4). The atria and extraneous tissue are removed and the remainder is chopped with scissors. The pieces are rinsed in homogenization buffer before being homogenized in 10 mL of the same buffer for 5-7 seconds. The homogenate is then diluted with homogenization buffer (40 total volume) and centrifuged at 200 g for 20 minutes. The supernatant is withdrawn and centrifuged at 7000 g for 20 minutes and the resulting pellet is isolated, resuspended in 40 mL of homogenization buffer and centrifuged once more at 7000 g for 20 minutes. The isolated pellet is resuspended in 10 mL of homogenization buffer and stored at 4° C. until use. This preparation is used as the isolated mitochondrial preparation.
(b). Inhibition of CAT-1 assay
Isolated mitochondria (20 μL) are incubated with 60 μL of Tris/sucrose buffer (sucrose, 500 mM; Tris, 20 mM; KCl, 100 mM; EDTA, 2 mM; pH=7.0 plus 83 μM palmitoyl CoA, and BSA, 0.8 mg/mL and 10^-4 to 10^-10 M of the drug to be tested. After 10 minutes at 30° C., the reaction is started by addition of 10 μL of ^3 H-carnitine (final concentration=250 μM). After 5 minutes, the reaction is terminated by the addition of ice cold 70% perchloric acid (PCA). The precipitated solids so formed, containing the insoluble product of the enzyme palmitoyl carnitine, are captured on filter paper. The filter paper is washed with 7% PCA, then dried and placed in scintillation vials with 10 mL of scintillant (Aquasol, New England Nuclear) and counted for radioactivity. The rate of the reaction is assessed by the difference in radioactivity between zero time and five minutes in the absence of test compound. The ability of test compounds at selected concentrations to inhibit CAT-1 is determined by their ability to reduce the formation of the radioactive product. The IC50 of the test compound is the concentration of test compound that reduces the formation of radioactive product by 50%.

SMILES	IC50 [1]	other results
COc1cc(OCCOc2ccc(C(=O)C(=O)O)cc2)cc(OC)c1OC [Example 65, 4-[[2-(3,4,5-trimethoxyphenoxy)ethyl]oxy]-alpha-oxobenzeneacetic acid]	3000 nM	–
O=C(O)C(=O)c1ccc(OCc2ccc3ccccc3n2)cc1 [Example 159, 4-[(2-quinolinyl)methoxy]-alpha-oxo-benzeneacetic acid]	5100 nM	–
O=C(O)C(=O)c1ccc(OCCOc2cc3ccccc3cc2O)cc1 [Example 121, 4-[[2-(3-hydroxy-2-naphthalenyloxy)ethyl]oxy]-alpha-oxobenzeneacetic acid]	300 nM	–
O=C(O)C(=O)c1ccc(OCC(=O)N2CCN(CCc3ccccc3C(F)(F)F)CC2)cc1 [Example 253, alpha-oxo-4-[2-oxo-2-[4-[2-[2-(trifluoromethyl)phenyl]ethyl]-1-piperazinyl]ethoxy]benzeneacetic acid (1:1) hydrochloride]	–	IC50: 500 nM
CCO/N=C(\C(=O)O)c1ccc(OCCOc2ccc3ccccc3c2)s1 [Example 310, (E)-alpha-(ethoxyimino)-5-[2-(2-naphthalenyloxy)ethoxy]-2-thiopheneacetic acid]	240 nM	–
O=C(O)C(=O)c1ccc(OCOc2ccccc2)cc1 [Example 67, alpha-oxo-4-[[(phenoxy)methyl]oxy]benzeneacetic acid]	15000 nM	–
O=C(C(=O)N(CCO)CCO)c1ccc(OCCOc2ccc3ccccc3c2)cc1 [Example 163, N,N-bis(2-hydroxyethyl)-4-[[2-(2-naphthalenyloxy)ethyl]oxy]-alpha-oxobenzeneacetamide]	3500 nM	–
C=CCO/N=C(/C(=O)O)c1ccc(OCCOc2ccc3ccccc3c2)s1 [Example 312, (Z)-5-[2-(2-naphthalenyloxy)ethoxy]-alpha-[(2-propenyloxy)imino]-2-thiopheneacetic acid]	100 nM	–
O=C(O)C(=O)c1ccc(OCCOc2ccc3ccncc3c2)cc1 [Example 129, 4-[[2-(7-isoquinolyloxy)ethyl]oxy]-alpha-oxobenzeneacetic acid (5:2) molar hydrate]	440 nM	–
O=C(O)/C(=N/OCc1ccccc1)c1ccc(OCCOc2ccc3ccccc3c2)s1 [Example 315, (Z)-5-[2-(2-naphthalenyloxy)ethoxy]-alpha-[(phenylmethoxy)imino]-2-thiopheneacetic acid]	140 nM	–
CC(C)(C)c1cc(SCCCOc2ccc(C(=O)C(=O)O)cc2)cc(C(C)(C)C)c1O [Example 275, 4-[3-[[3,5-bis(1,1-dimethylethyl)-4-hydroxyphenyl]thio]propoxy]-alpha-oxobenzeneacetic acid]	570 nM	–
CC1(C)OCC(COC(=O)C(=O)c2ccc(OCCOc3ccc4ccccc4c3)cc2)O1 (racemic) [Example 169, rac.-4-[[2-(2-naphthalenyloxy)ethyl]oxy]-alpha-oxobenzeneacetic acid (2,2-dimethyl-1,3-dioxolan-4-yl)methyl ester]	3500 nM	–
O=C(O)C(=O)c1ccc(CCCNC(=O)c2ccc3ccccc3c2)cc1 [Example 147, 4-[3-[[(2-naphthalenyl)carbonyl]amino]propyl]-alpha-oxobenzeneacetic acid]	6200 nM	–
O=C(O)C(=O)c1ccc(OCCOCCOc2ccccc2)cc1 [Example 77, 4-[[2-[[2-(phenoxy)ethyl]oxy]ethyl]oxy]-alpha-oxobenzeneacetic acid]	2000 nM	–
O=C(O)C(=O)c1ccc(OCC(=O)N2CCOCC2)cc1 [Example 255, 4-[2-(4-morpholinyl)-2-oxoethoxy]-alpha-oxobenzeneacetic acid]	12000 nM	–
Cc1nnc2n1-c1sc(CCCOc3ccc(C(=O)C(=O)O)cc3)cc1C(c1ccccc1Cl)=NC2 [Example 296]	–	IC50: 10000 nM
COCCOc1ccc(C(=O)C(=O)O)cc1 [Example 97, 4-[[2-(methoxy)ethyl]oxy]-alphaoxobenzeneacetic acid]	30000 nM	–
CCCc1c(OCCCOc2ccc(C(=O)C(=O)O)cc2)ccc(C(=O)O)c1O [Example 269, 4-[3-[4-carboxy-3-hydroxy-2-propylphenoxy)propoxy]-alpha-oxobenzeneacetic acid]	1800 nM	–
NS(=O)(=O)c1ccc(OCCOc2ccc(C(=O)C(=O)O)cc2)cc1 [Example 53, 4-[[2-[4-(aminosulfonyl)phenoxy]ethyl]oxy]-alpha-oxobenzeneacetic acid]	4000 nM	–
O=C(O)C(=O)c1ccc([S+]([O-])CCOc2ccc3ccccc3c2)cc1 (racemic) [Example 151, rac.-4-[[2-(2-naphthalenyloxy)ethyl]sulfinyl]-alpha-oxobenzeneacetic acid]	5500 nM	–

SMILES	IC50 [1]	other results
O=C(COc1ccc2ccccc2c1)Nc1ccc(C(=O)C(=O)O)cc1 [Example 153, 4-[[2-(2-naphthalenyloxy)acetyl]amino]-alpha-oxobenzeneacetic acid]	930 nM	–
CCO/N=C(/C(=O)O)c1ccc(OCCOc2ccc3ccccc3c2)s1 [Example 309, (Z)-alpha-(ethoxyimino)-5-[2-(2-naphthalenyloxy)ethoxy]-2-thiopheneacetic acid]	20 nM	–
O=C(O)C(=O)c1ccc(OCC(=O)C2CCCCCCC2)cc1 [Example 290, 4-[2-(cyclooctyl)-2-oxoethoxy]-alpha-oxobenzeneacetic acid]	1000 nM	–
Cc1cc(C)c(C(=O)COc2ccc(C(=O)C(=O)O)cc2)c(C)c1 [Example 292, 4-[2-oxo-2-(2,4,6-trimethylphenyl]ethoxy]-alpha-oxobenzeneacetic acid]	4500 nM	–
O=C(O)C(=O)c1ccc(OCCOC2CCc3ccccc3C2)cc1 (racemic) [Example 114, rac.-alpha-oxo-4-[[2-(1,2,3,4-tetrahydro-2-naphthalenyloxy)ethyl]oxy]benzeneacetic acid]	2800 nM	–
COc1cc(OCCOc2ccc3ccccc3c2)cc(OC)c1C(=O)C(=O)O [Example 195, 2,6-dimethoxy-4-[2-(2-naphthalenyloxy)ethoxy]-alpha-oxobenzeneacetic acid]	–	inhibition: 24%
O=C(O)C(=O)c1ccc(OCCCCc2cccnc2)cc1 [Example 123, alpha-oxo-4-[4-(3-pyridinyl)butoxy]benzeneacetic acid]	1500 nM	–
O=C(O)C(=O)c1ccc(OCCOc2ccc(F)cc2)cc1 [Example 43, 4-[[2-(4-fluorophenoxy)ethyl]oxy]-alpha-oxobenzeneacetic acid]	800 nM	–
COc1ccc(OCCOc2ccc(C(=O)C(=O)O)cc2)cc1OC [Example 63, 4-[[2-(3,4-dimethoxyphenoxy)ethyl]oxy]-alpha-oxobenzeneacetic acid]	3000 nM	–
O=C(O)C(=O)c1ccc(OCCOc2ccc3cccnc3c2)cc1 [Example 127, alpha-oxo-4-[[2-(7-quinolyloxy)ethyl]oxy]benzeneacetic acid monohydrate]	260 nM	–
CCCc1c(OCCCOc2ccc(C(=O)C(=O)O)cc2)ccc(C(C)=O)c1OC [Example 271, 4-[3-[4-acetyl-3-methoxy-2-propylphenoxy)propoxy]-alpha-oxobenzeneacetic acid]	460 nM	–
O=C(O)C(=O)c1ccc(OCc2ccccc2)cc1 [Example 19, 4-[(phenylmethyl)oxy]-alpha-oxobenzeneacetic acid]	90000 nM	–
CN(C)/N=C(/C(=O)O)c1ccc(OCCOc2ccc3ccccc3c2)cc1 [Example 320, (E)-alpha-(dimethylhydrazono)-4-[2-(2-naphthalenyloxy)ethoxy]benzeneaceticacid]	1800 nM	–
O=C(O)C(=O)c1ccc(OCCOc2ccc(Oc3ccccc3)cc2)cc1 [Example 59, alpha-oxo-4-[[2-(4-phenoxyphenoxy)ethyl]oxy]benzeneacetic acid]	10000 nM	–
O=C(O)C(=O)c1ccc(OCCOc2ccc3c(c2)CCCC3)cc1 [Example 112, alpha-oxo-4-[[2-(5,6,7,8-tetrahydro-2-naphthalenyloxy)ethyl]oxy]benzeneacetic acid]	200 nM	–
O=C(O)C(=O)c1ccc(OCC(=O)N2CCN(c3ccccc3)CC2)cc1 [Example 249, 4-[2-oxo-2-(4-phenyl-1-piperazinyl)ethoxy]-alpha-oxobenzeneacetic acid]	10000 nM	–
O=C(O)C(=O)c1ccc(OCCCCSc2ccc3ccccc3c2)cc1 [Example 92, 4-[[4-(2-naphthalenylthio)butyl]oxy]-alpha-oxobenzeneacetic acid]	3500 nM	–
Cc1ccc(OCCOc2ccc(C(=O)C(=O)O)cc2)cc1 [Example 49, 4-[[2-(4-methylphenoxy)ethyl]oxy]-alpha-oxobenzeneacetic acid]	4000 nM	–
C=CCO/N=C(\C(=O)O)c1ccc(OCCOc2ccc3ccccc3c2)s1 [Example 313, (E)-5-[2-(2-naphthalenyloxy)ethoxy]-alpha-[(2-propenyloxy)imino]-2-thiopheneacetic acid]	270 nM	–
O=C(O)C(=O)c1ccc(OCCOc2cccc(F)c2)cc1 [Example 41, 4-[[2-(3-fluorophenoxy)ethyl]oxy]-alpha-oxobenzeneacetic acid]	1000 nM	–
